Data taken from US8637679B2, “Process for the isolation of organic compounds useful for the treatment of cancer” (Council of Scientific and Industrial Research, priority 2011, dated 2014).

Experiments:
[1] = tested on: glioma cells (U87MG, U373MG, LN229, A172 and T98G); test: MTT assay, panel of glioma cell lines; format: cell-based, human; details: Homo sapiens, Glioma cell, range over U87MG, 48 hr, read-out: IC50 values against different glioma cell lines
Method: (§1) Human cervical cancer cell lines (HeLa, ME-180 and SiHa), brain tumor cell lines (U87MG, U373MG, U87MG EGFRvIII, T98G, A172 and LN229), lymphoid leukemia (MOLT-3, MOLT-4, REH and CEMC-7), myloid leukemia (K562), pancreatic cancer (MIAPaCa-2, AsPC-1, Panc-1 and Panc 10.05), lung cancer (A549) and colon cancer (HCT116 and SW480) cell lines from American Type Culture Collection, Manassas, Va., USA were grown in IMDM or RPMI (cell specific) Medium supplemented with 10% fetal bovine serum and 1% antibiotic-antimycotic. Cells were cultured in 37° C. in an atmosphere of 5% CO2.
(§2) Viability of cancer cell lines after treatment as at the indicated times was determined by MTT assay. Briefly, 10,000 cells were plated in triplicate in 96 well plates and incubated for 24 and 48 hours in complete media in presence of varying dose of mahanine (0-50 μM). 100 ug MTT was added in each well. Incubate the plate for 1-4 hours at 37° C. and humidified 5% CO2 atmosphere. Absorbance was recorded at 550 nm with 96 well plate readers.

[2] = tested on: endoplasmic reticulum (ER) stress in MIAPaCa-2 cells; test: ER-Tracker Blue-White DPX confocal microscopy; format: cell-based, human; details: MIAPaCa-2, 18 hrs, 10 μM and 20 μM mahanine
Method: MIAPaCa-2 cells were seeded in 8 chambered polystyrene culture slide [BD Falcon, USA] at […] cells per well in RPMI-1640 medium supplemented with 10% FBS. After 24 hrs of seeding, cells were exposed to different concentration of mahanine along with vehicle control. Cells were washed with 1× Hanks Balanced Salt Solution (HBSS) after 18 hrs of incubation and processed for ER staining. Pre-warmed ER-Tracker Blue White DPX (Molecular Probes) was added to the cells at 500 nM working concentration and incubated for 30 mins at 37° C. at 5% CO2 incubator. The loading solution was removed and cells were then washed again in HBSS and samples were analyzed using confocal laser scanning microscope (NICON A1-R, NICON, Japan). Images were recorded using 60×/1.40 oil plan Apo-N objectives at calibrated magnification.

[3] = target: Hsp90α (Homo sapiens, UniProt P07900); test: γ-ATP sepharose binding assay, Hsp90α; details: mahanine at 50 and 100 μM
Method: 5 μg of purified Hsp90α and Hsp90β were pre-incubated separately on ice with 200 μL incubation buffer (10 mM Tris-Hcl, 50 mM KCl, 5 mM MgCl2, 2 mM DTT, 20 mM Na2MoO4, 0.01% NP40, pH 7.5) containing mahanine or 17-AAG and incubated for 30 mins on ice. After the incubation, 25 μL pre-equilibrated γ-phosphate ATP sepharose added and again incubated at 37° C. with frequent agitation.
Sepharose subsequently washed and analyzed by SDS-PAGE. Then the blot was probed with anti Hsp90 antibody and developed by ECL.

[4] = In vivo toxicity in mice
Method: Animals were examined for 1 month after the administration of acute toxic dose (150 mg/kg/day); there was no change in behavior, feeding habit, total body mass and in number of biochemical and haematological parameters.

[5] = Tissue toxicity in K562 xenograft bearing nude mice; format: in vivo
[6] = target: human Hsp90; test: Surface plasmon resonance binding to immobilized Hsp90; details: SPR, Hsp90-mahanine complex
Method: The portion of the sensorgram which corresponds to the dissociation of mahanine from Hsp90 was analyzed by the BIA evaluation program 2.1 to obtain the dissociation rate (kd) (FIG. 22). The experimental data fits well with the single exponential kinetic model used. Some experiments were repeated at a flow rate of 5 μl/min to check the effect of possible rebinding. Rebinding and mass transfer limitation was also checked by the repetition of the experiments at lower levels of immobilized Hsp90. […] Using the corresponding kd values nonlinear curve fitting of the association phase of the corresponding sensorgram was carried out with the BIA evaluation program 2.1 to obtain association rate (ka).
All the solutions were passed through a 0.22 micron Millipore filter and de-gassed in vacuum for 6-7 minutes at room temperature. For coupling Hsp90 to the SPR sensor chips, 400 μl (50 μg/ml) human Hsp90 was dialysed over night at 4° C. against coupling buffer containing 5 mM Na2HPO4, pH 7.4 and 150 mM NaCl to remove Tris, which interferes with the coupling. Before coupling, carboxymethyl-dextran sensor chips (CM5, Lot 1170768, Biacore, Upsala Sweden) were incubated with running buffer containing 10 mM HEPES, pH 7.4, 0.15 M KCl and 0.001% Tween-20 to prevent the unspecific binding of proteins to the capillaries in a BIAcore apparatus for 10 minutes at 25° C. at a flow rate of 5 μl/min. […]

[7] = tested on: SiHa; test: 7-AAD flow cytometric apoptosis, SiHa; format: cell-based, human; details: 25 μM mahanine
Method: U87MG, LN229, HeLa, SiHa and ME180 (1×10^6 cells) cells were cultured in 6-well plates in presence or absence of Mahanine (25 μM) for 24 hrs. Cells were washed in PBS, incubated with 7-Aminoactinomycin D (7-AAD) at 4° C. for 20 min and processed. Data acquisition was done on a FACSCalibur flow cytometer (BD) at excitation wavelength at 488 nm and emission wavelength at 647 nm and analyzed with CellQuestPro software.

[8] = tested on: A549; test: MTT cell viability assay, A549; format: cell-based, human; details: Homo sapiens; A549, 48 hrs
Method: as §1, §2

[9] = tested on: Vero; test: MTT cell viability assay, Vero normal cells; format: cell-based, African monkey
[10] = In vivo bioavailability after oral feeding; parameters: species or system Balb/c mice; details: after oral administration
Method: EtOAc extract of Murraya koenigii was orally feeded to normal healthy Balb/c (100 mg/kg body weight) and blood was collected from retro orbital plexus after 30 min interval by glass capillary. Control blood was collected from the mice before the […] of extract. The Institutional Animal Ethical Committee had approved the study. Blood serum was isolated and the serum protein was separated by centrifugation in ice-cold acetone. Supernatant was evaporated to dryness and residual part was dissolved in minimum volume of MeOH and injected into the HPLC column.

CC(C)=CCCC1(C)C=Cc2c(c(C)cc3c2[nH]c2cc(O)ccc23)O1 (stereo not shown) [Mahanine, mahanine]
IC50 [1]: 12 to 17 µM
ER-Tracker staining (ER stress) [2]: significantly increased blue staining
effect on ATP binding to purified Hsp90 [3]: could not reduce
Creatinine ([4]; mouse, in vivo): 3.72 mg/dL
Hb ([4]; mouse, in vivo): 13.64 gm/dl
SGOT ([4]; mouse, in vivo): 174.0 Unit/ml
SGPT ([4]; mouse, in vivo): 34.7 Unit/ml
Urea ([4]; mouse, in vivo): 48.6 mg/dL
tolerated dose ([4]; normal Balb/c mice, consecutive 20 days): 150 mg/kg/day
toxicity towards nonspecific tissues (lung, liver, spleen) [5]: no toxic effect
Dissociation constant (KD) (kd/ka) [6]: 4.99 µM
apoptosis (7-AAD+ve cells) [7]: 97.13%
IC50 [8]: 12.8 ± 1.1 µM
IC50 ([9]; Primates, Vero normal cell line, 48 hrs): > 100 µM
sensitivity of Vero cells ([9]; proliferating normal cells, in vitro): less sensitive
secondary metabolites in blood (mass spectroscopy) [10]: no production of secondary metabolites
